The subject of one test is MCF-7. Briefly: XTT cytotoxicity assay. In kind it is cell-based, human. The note with it: XTT; average ± standard deviation of 2-4 independent assays; read-out: Inhibition of Cancer Cell Proliferation (IC50) MCF-7. As for the experimental part:
(§1) In initial experiments, compounds 4a-g and 7c-g were evaluated for their cytotoxicity against human breast cancer cell lines MCF-7 and MDA-MB-468 and human colon cancer cell line HCT-116. The makaluvamine compounds provided in Table 2 were also evaluated for their cytotoxicity against human breast cancer cell lines MCF-7. Compound nos. 8 and 27-33 were not evaluated in this experiment. Cells were obtained from ATCC (Manassas, Va.). For each derivative the IC50 value was determined using data generated from 2-4 independent tetrazolium-based (XTT) cytotoxicity assays (R & D Systems Inc., Minneapolis, Minn.) according to the manufacturer's instructions. […] MCF-7, MDA-MD-468 and HCT-116 cells were grown at 37 degrees C. in a humidified atmosphere with complete growth media supplemented with fetal bovine serum. Growth media was changed 2-3 times per week as required.
(Tetrazolium dyes change colour on reduction, which living cells bring about.)

The next test has as its system HCT-116. Put plainly: XTT cytotoxicity assay. The class given is cell-based, human. The note with it: average ± standard deviation of 2-4 independent assays, read-out: Inhibition of Cancer Cell Proliferation (IC50) HCT-116. As for the experimental part: as §1
A further test concerns MDA-MB-468. Put plainly: XTT cytotoxicity assay. In kind it is cell-based, human. The note with it: average ± standard deviation of 2-4 independent assays, read-out: Inhibition of Cancer Cell Proliferation (IC50) MDA-MB-468. As for the experimental part:
as §1

Another test deals with U87MG. Briefly: MTT growth inhibition assay. In kind it is cell-based, human. The note with it: cancer cell, 72 hr, read-out: Growth inhibitory activity (IC50).
The target in the next test is T1, topoisomerase II (Homo sapiens, UniProt P11388).
T1 construct: purchased TopoGEN, Inc., Port Orange, Fla
T1 sequence (P11388 whole entry): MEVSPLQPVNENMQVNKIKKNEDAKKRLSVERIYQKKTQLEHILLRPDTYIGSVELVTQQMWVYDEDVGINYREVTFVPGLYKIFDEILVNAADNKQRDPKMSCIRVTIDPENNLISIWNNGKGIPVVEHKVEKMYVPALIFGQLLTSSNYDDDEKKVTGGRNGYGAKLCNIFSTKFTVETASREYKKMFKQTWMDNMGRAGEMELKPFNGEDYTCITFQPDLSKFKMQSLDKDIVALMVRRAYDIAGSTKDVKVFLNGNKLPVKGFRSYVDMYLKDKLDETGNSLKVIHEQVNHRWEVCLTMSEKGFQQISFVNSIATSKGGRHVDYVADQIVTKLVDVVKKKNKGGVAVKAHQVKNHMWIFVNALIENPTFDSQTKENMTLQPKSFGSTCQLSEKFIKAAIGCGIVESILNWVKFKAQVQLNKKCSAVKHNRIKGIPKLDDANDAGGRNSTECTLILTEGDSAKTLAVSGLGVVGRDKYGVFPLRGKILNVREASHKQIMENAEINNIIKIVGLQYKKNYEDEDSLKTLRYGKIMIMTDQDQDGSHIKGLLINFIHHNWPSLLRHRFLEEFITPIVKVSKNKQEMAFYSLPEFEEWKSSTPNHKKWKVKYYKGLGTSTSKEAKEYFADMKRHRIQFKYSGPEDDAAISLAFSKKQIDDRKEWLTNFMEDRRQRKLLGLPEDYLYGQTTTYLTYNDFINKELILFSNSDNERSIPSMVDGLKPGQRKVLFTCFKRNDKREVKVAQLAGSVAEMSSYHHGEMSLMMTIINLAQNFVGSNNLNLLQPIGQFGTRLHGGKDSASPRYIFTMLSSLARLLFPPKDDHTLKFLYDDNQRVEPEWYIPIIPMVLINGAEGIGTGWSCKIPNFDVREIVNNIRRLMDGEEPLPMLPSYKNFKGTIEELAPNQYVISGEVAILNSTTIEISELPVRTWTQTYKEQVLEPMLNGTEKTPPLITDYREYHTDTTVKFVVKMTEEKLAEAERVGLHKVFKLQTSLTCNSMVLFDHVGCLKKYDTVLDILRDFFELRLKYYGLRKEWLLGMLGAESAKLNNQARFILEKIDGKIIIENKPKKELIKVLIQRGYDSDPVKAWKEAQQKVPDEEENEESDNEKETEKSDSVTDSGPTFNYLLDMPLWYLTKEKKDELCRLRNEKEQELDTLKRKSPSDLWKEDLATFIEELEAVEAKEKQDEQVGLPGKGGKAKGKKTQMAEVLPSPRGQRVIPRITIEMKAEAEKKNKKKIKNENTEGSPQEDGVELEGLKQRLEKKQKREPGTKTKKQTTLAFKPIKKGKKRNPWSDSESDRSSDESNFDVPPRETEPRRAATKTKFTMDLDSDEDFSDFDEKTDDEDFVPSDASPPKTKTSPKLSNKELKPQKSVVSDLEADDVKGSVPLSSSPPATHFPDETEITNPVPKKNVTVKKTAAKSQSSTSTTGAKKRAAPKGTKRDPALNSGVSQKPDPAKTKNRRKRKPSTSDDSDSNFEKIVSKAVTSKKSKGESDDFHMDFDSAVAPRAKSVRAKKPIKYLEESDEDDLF
Briefly: Topoisomerase II drug screening kit (relaxation of plasmid DNA). The class given is biochemical. Also noted: key to Topoisomerase II Inhibition: — none; + low; ++ moderate; +++ strong. The note with it: for Topoisomerase II Inhibition: 100 μM drug compound, topoisomerase II (4U), 500 ng plasmid DNA; for inhibition of topoisomerase II catalytic activity (in words): 100 μM makaluvamine derivative. An excerpt:
In order to determine the effect of the makaluvamine derivatives of the present disclosure, the synthesized makaluvamine derivatives were screened for their ability to inhibit topoisomerase II activity in vitro. Topoisomerase II functions by generating a double-stranded DNA break followed by resealing of the break. Topoisomerase II inhibitors interfere with the breakage-rejoining reaction thereby trapping the enzyme in a cleavage complex. In order to determine if the disclosed makaluvamine derivatives inhibited topoisomerase II activity, nine of the derivatives were tested for topoisomerase II inhibitory activity using a topoisomerase-II drug screening kit (TopoGEN, Inc., Port Orange, Fla.) according to the manufacturer's instructions. The screening kit uses a supercoiled plasmid DNA substrate (pRYG) which contains one topoisomerase II cleavage/recognition site. […] Relaxed DNA was separated using non-ethidium bromide (EtBr) agarose gels, then stained with EtBr and quantified using Kodak Gel Logic Imaging System and Molecular Imaging software (Eastman Kodak Co., Rochester, N.Y.). Inhibition of relaxation of plasmid DNA or catalytic activity was reported as; − none, + low, ++ moderate, or +++ strong.

Read-outs that look alike come from different tables or passages of the source.

Results on six molecules are retold here after patent US20100144779A1, “Marine Alkalod Makaluvamines and Derivatives Thereof” (THE UAB RESEARCH FOUNDATION, priority 2007, published 2010).

On to `O=C1C(NCCc2ccccc2)=CC2=NCCc3c[nH]c1c32` [Compound 4d], for which the IC50 was 1.7 ± 0.5 µM in the test on MCF-7, 3.9 ± 1.2 µM with HCT-116, 0.3 µM with MDA-MB-468 and 4.28 µM in the test on U87MG. For the same molecule, the “Topoisomerase II Inhibition” value at topoisomerase II was “+”. The “inhibition of topoisomerase II catalytic activity (in words)” value at topoisomerase II is “comparable to etoposide and m-AMSA”.
In the case of `CNC1=CC2=NCCc3c[nH]c(c32)C1=O` [Compound 4a], the values for the IC50 in the test with MCF-7, in the test with HCT-116 and in the test on MDA-MB-468 were 1.3 ± 0.1 µM, 2.5 ± 1.3 µM and 0.4 ± 0.05 µM, respectively. For the same molecule, the “Topoisomerase II Inhibition” value at topoisomerase II was “—”.
In the case of `O=C(O)C(F)(F)F.O=C1C(NCCc2ccc3c(c2)OCO3)=CC2=NCCc3c[nH]c1c32` [Compound 6], in the test with U87MG (Homo sapiens, U-87 MG), the IC50 came out at 5.64 µM.
In the case of `COc1ccc(CCNC2=CC3=NCCc4c[nH]c(c43)C2=O)cc1OC.O=C(O)C(F)(F)F` [Compound 20], in the test with U87MG (Homo sapiens, U-87 MG), the IC50 was found to be 3.04 µM.
Still for that read-out and setting: then `O=C(O)C(F)(F)F.O=C1C(NCc2ccc(F)cc2)=CC2=NCCc3c[nH]c1c32` [Compound 28], with 1.71 µM.
On to `O=C1C(NCc2ccccc2)=CC2=NCCc3c[nH]c1c32` [Compound 4c], for which the IC50 with MCF-7 stood at 1 µM; with HCT-116 it was 1.3 ± 0.2 µM; with MDA-MB-468, 0.3 µM; with U87MG, 2.88 µM. Besides, the “Topoisomerase II Inhibition” value at topoisomerase II is “++”. For the same molecule, at topoisomerase II, the “inhibition of topoisomerase II catalytic activity (in words)” value is “comparable to etoposide and m-AMSA”.
